The subject of this experiment is mice, LPC-1 plasma cell tumor ip, median survival T/C. Description: NCI In Vivo Anticancer Drug Screen. Data for tumor model Lieberman Plasma Cell No. 1 (LPC-1) (intraperitoneal) in unknown mice. The note with it: endpoint: median survival time, higher = longer survival. The protocol: The antitumor activity of compounds was measured in mice bearing transplantable tumors. Survival or tumor size were measured and the results are expressed as the measurement made in the treated group (T) divided by the measurement made in the vehicle treated control group (C). The tumor model used in this assay is Lieberman Plasma Cell No. 1 (LPC-1) (intraperitoneal) in unknown mice

Values joined by “and” are separate entries in the source; they are usually repeats but may differ in a detail not shown here. Identical values can stand only once. Toxic doses and inconclusive results are not listed.

For the compound `COc1cc2c(c3c1c(=O)c1ccccc1n3C)C=CC(C)(C)O2`, the T/C by setting is: (dose: 9.38 mg/kg/injection, schedule: Q03HX024 (oral), vehicle: steriod suspending solution) 118 % of control; (dose: 18.0 mg/kg/injection, schedule: Q01DX021 (sc), vehicle: other) 121 % of control; (dose: 18.0 mg/kg/injection, schedule: Q03HX008 (sc), vehicle: other) 166 % of control; (dose: 18.75 mg/kg/injection, schedule: Q03HX008 (ip), vehicle: steriod suspending solution) 103 % of control; (dose: 18.75 mg/kg/injection, schedule: Q03HX024 (oral), vehicle: steriod suspending solution) 118 % of control; (dose: 23.0 mg/kg/injection, schedule: Q01DX028 (sc), vehicle: other) 154 % of control. Besides, the T/C by setting is: (dose: 27.0 mg/kg/injection, schedule: Q03HX008 (sc), vehicle: other) 280 % of control; (dose: 27.0 mg/kg/injection, schedule: Q03HX024 (sc), vehicle: other) 178 % of control; (dose: 37.5 mg/kg/injection, schedule: Q01DX028 (oral), vehicle: other) 105 % of control; (dose: 37.5 mg/kg/injection, schedule: Q03HX008 (oral), vehicle: steriod suspending solution) 118 % of control; (dose: 37.5 mg/kg/injection, schedule: Q03HX024 (oral), vehicle: steriod suspending solution) 109 % of control; (dose: 40.0 mg/kg/injection, schedule: Q01DX021 (sc), vehicle: other) 164 % of control. Besides, the T/C (dose: 40.0 mg/kg/injection, schedule: Q03HX008 (sc), vehicle: other) is 180 % of control; the T/C (dose: 40.0 mg/kg/injection, schedule: Q03HX024 (sc), vehicle: other) is 204 % of control; the T/C (dose: 60.0 mg/kg/injection, schedule: Q01DX021 (sc), vehicle: other) is 173 % of control; the T/C (dose: 60.0 mg/kg/injection, schedule: Q04DX003 (sc), vehicle: other) was 152 % of control; the T/C (dose: 70.0 mg/kg/injection, schedule: Q03HX024 (sc), vehicle: steriod suspending solution) was 112 % of control; the T/C (dose: 75.0 mg/kg/injection, schedule: Q01DX001 (ip), vehicle: steriod suspending solution) is 112 % of control. Besides, the T/C is 96 % of control (dose: 75.0 mg/kg/injection, schedule: Q01DX001 (oral), vehicle: steriod suspending solution); 108 % of control (dose: 75.0 mg/kg/injection, schedule: Q01DX028 (oral), vehicle: other); 87 % of control (dose: 75.0 mg/kg/injection, schedule: Q03HX008 (oral), vehicle: steriod suspending solution); 150 % of control (dose: 75.0 mg/kg/injection, schedule: Q03HX024 (oral), vehicle: steriod suspending solution); 150 % of control (dose: 90.0 mg/kg/injection, schedule: Q01DX005 (sc), vehicle: other); 120 % of control (dose: 99.0 mg/kg/injection, schedule: Q01DX020 (oral), vehicle: saline). Also, the T/C by setting is: (dose: 100.0 mg/kg/injection, schedule: Q01DX001 (sc), vehicle: steriod suspending solution) 100 % of control; (dose: 142.0 mg/kg/injection, schedule: Q01DX001 (sc), vehicle: steriod suspending solution) 104 % of control; (dose: 143.0 mg/kg/injection, schedule: Q03HX008 (sc), vehicle: steriod suspending solution) 153 % of control; (dose: 143.0 mg/kg/injection, schedule: Q03HX024 (sc), vehicle: steriod suspending solution) 156 % of control; (dose: 145.0 mg/kg/injection, schedule: Q03HX024 (sc), vehicle: other) 103 % of control; (dose: 150.0 mg/kg/injection, schedule: Q01DX001 (ip), vehicle: steriod suspending solution) 100 % of control. In addition, the T/C by setting is: (dose: 150.0 mg/kg/injection, schedule: Q01DX001 (oral), vehicle: steriod suspending solution) 106 % of control and 112 % of control; (dose: 150.0 mg/kg/injection, schedule: Q01DX028 (oral), vehicle: other) 100 % of control; (dose: 180.0 mg/kg/injection, schedule: Q01DX001 (sc), vehicle: other) 154 % of control; (dose: 180.0 mg/kg/injection, schedule: Q01DX005 (sc), vehicle: other) 171 % of control; (dose: 180.0 mg/kg/injection, schedule: Q04DX003 (sc), vehicle: other) 173 % of control; (dose: 204.0 mg/kg/injection, schedule: Q03HX008 (sc), vehicle: steriod suspending solution) 159 % of control. In addition, the T/C (dose: 214.0 mg/kg/injection, schedule: Q01DX001 (sc), vehicle: steriod suspending solution) is 102 % of control; the T/C (dose: 214.0 mg/kg/injection, schedule: Q03HX024 (sc), vehicle: other) was 112 % of control and 121 % of control; the T/C (dose: 300.0 mg/kg/injection, schedule: Q01DX001 (oral), vehicle: steriod suspending solution) was 106 % of control; the T/C (dose: 300.0 mg/kg/injection, schedule: Q## X008 (oral), vehicle: other) is 161 % of control; the T/C (dose: 320.0 mg/kg/injection, schedule: Q01DX001 (sc), vehicle: steriod suspending solution) was 104 % of control; the T/C (dose: 320.0 mg/kg/injection, schedule: Q03HX024 (sc), vehicle: other) is 118 % of control. Further, the T/C (dose: 360.0 mg/kg/injection, schedule: Q01DX001 (sc), vehicle: other) was 152 % of control; the T/C (dose: 480.0 mg/kg/injection, schedule: Q01DX001 (sc), vehicle: steriod suspending solution) was 118 % of control; the T/C (dose: 528.0 mg/kg/injection, schedule: Q## X008 (sc), vehicle: steriod suspending solution) is 116 % of control; the T/C (dose: 600.0 mg/kg/injection, schedule: Q01DX001 (ip), vehicle: steriod suspending solution) was 112 % of control; the T/C (dose: 600.0 mg/kg/injection, schedule: Q01DX001 (oral), vehicle: steriod suspending solution) is 120 % of control; the T/C (dose: 600.0 mg/kg/injection, schedule: Q## X024 (oral), vehicle: steriod suspending solution) was 86 % of control. In addition, the T/C (dose: 800.0 mg/kg/injection, schedule: Q## X024 (sc), vehicle: steriod suspending solution) was 166 % of control; the T/C (dose: 1136.0 mg/kg/injection, schedule: Q## X008 (sc), vehicle: steriod suspending solution) is 108 % of control; the T/C (dose: 1712.0 mg/kg/injection, schedule: Q## X024 (sc), vehicle: steriod suspending solution) was 160 % of control; the T/C (dose: 2560.0 mg/kg/injection, schedule: Q## X008 (sc), vehicle: steriod suspending solution) was 172 % of control; the T/C (dose: 2560.0 mg/kg/injection, schedule: Q## X024 (sc), vehicle: steriod suspending solution) was 118 % of control.

In the case of `CN[C@H]1CCc2cc(OC)c(OC)c(OC)c2-c2ccc(OC)c(=O)cc21`, the T/C was 102 % of control (dose: 0.62 mg/kg/injection, schedule: Q01DX015 (sc), vehicle: saline); 102 % of control (dose: 1.25 mg/kg/injection, schedule: Q01DX015 (sc), vehicle: saline); 107 % of control (dose: 1.25 mg/kg/injection, schedule: Q01DX028 (sc), vehicle: saline); 107 % of control (dose: 2.5 mg/kg/injection, schedule: Q01DX028 (sc), vehicle: saline).

With `Nc1cc2ncccc2c2ncccc12`, the T/C reads like this: (dose: 37.5 mg/kg/injection, schedule: Q01DX028 (sc), vehicle: steriod suspending solution) 104 % of control; (dose: 75.0 mg/kg/injection, schedule: Q01DX028 (sc), vehicle: steriod suspending solution) 104 % of control; (dose: 150.0 mg/kg/injection, schedule: Q01DX028 (sc), vehicle: steriod suspending solution) 112 % of control.

On to `NC(CSC(c1ccccc1)(c1ccccc1)c1ccccc1)C(=O)O` (stereo unspecified), for which the T/C by setting is: (dose: 7.5 mg/kg/injection, schedule: Q01DX028 (sc), vehicle: saline) 102 % of control; (dose: 15.0 mg/kg/injection, schedule: Q01DX028 (sc), vehicle: saline) 105 % of control; (dose: 60.0 mg/kg/injection, schedule: Q01DX028 (sc), vehicle: saline) 105 % of control.

On to `CS(=O)(=O)OCCN(CCOS(C)(=O)=O)c1ccc(C=Nc2ccc3oc(=O)ccc3c2)cc1`, for which the T/C by setting is: (dose: 3.5 mg/kg/injection, schedule: Q01DX Z (sc), vehicle: carboxymethylcellulose (CMC)) 166 % of control; (dose: 3.8 mg/kg/injection, schedule: Q01DX028 (sc), vehicle: steriod suspending solution) 165 % of control; (dose: 7.0 mg/kg/injection, schedule: Q01DX Z (sc), vehicle: carboxymethylcellulose (CMC)) 177 % of control; (dose: 7.5 mg/kg/injection, schedule: Q01DX028 (sc), vehicle: steriod suspending solution) 188 % of control; (dose: 14.0 mg/kg/injection, schedule: Q01DX Z (sc), vehicle: carboxymethylcellulose (CMC)) 216 % of control; (dose: 15.0 mg/kg/injection, schedule: Q01DX028 (sc), vehicle: steriod suspending solution) 250 % of control. Moreover, the T/C was 161 % of control (dose: 28.0 mg/kg/injection, schedule: Q01DX Z (sc), vehicle: carboxymethylcellulose (CMC)) and 230 % of control (dose: 30.0 mg/kg/injection, schedule: Q01DX028 (sc), vehicle: steriod suspending solution).
